In patent publication US20150065717A1, “NIPECOTIC ACID DERIVATIVE AND USE THEREOF FOR MEDICAL PURPOSES” (Toray Industries, Inc., priority 2012, published 2015):

Key:
[1] = tested on: rat diabetic nephropathy model; assay: Pharmacological effect in rat diabetic nephropathy model (streptozotocin); assay type: in vivo, rat (spontaneously hypertensive rat); conditions: mean±standard error, n=6
Protocol: Example Compound 1 was administered to a rat diabetic nephropathy model (International Journal of Molecular Medicine, 2007, vol. 19, p. 571-579; Hypertension, 1998, vol. 32, p. 778-785), and the therapeutic effect of the nipecotic acid derivative (I) or a pharmaceutically acceptable salt thereof on chronic renal disease with diabetic nephropathy was evaluated.
Rats (spontaneously hypertensive rat, male, 12 or 13 weeks old; Charles River Laboratories Japan, Inc.) with diabetic nephropathy induced by administration of an aqueous streptozotocin (Enzo Life Sciences, Inc.) solution (40 mg/kg) into the tail vein were provided as “group with induced diabetic nephropathy”. On the other hand, rats to which water for injection was similarly administered were provided as “untreated group”.
Six weeks after administration of streptozotocin, urine was collected using a metabolic cage at room temperature for 24 hours. The urinary albumin concentration in the collected urine was measured by the ELISA method. From the urinary albumin concentration and the urine weight, the amount of urinary albumin excretion was calculated.
To rats showing pathological conditions of diabetic nephropathy in the group with induced diabetic nephropathy, Example Compound 1 (10 mg/kg) or a positive control compound imidapril (2 mg/kg) was orally administered once per day for 20 days from Day 8 after the administration of streptozotocin. […]
After the last administration of the test substance on Day 27 after administration of streptozotocin, urine was collected using a metabolic cage at room temperature for 24 hours. The urinary albumin concentration in the collected urine was measured by the ELISA method. From the urinary albumin concentration and the urine weight, the amount of urinary albumin excretion was calculated. In addition, on Day 18 after administration of streptozotocin, the systemic systolic pressure was measured by the tail-cuff method. On Day 29 after administration of streptozotocin, blood was collected from the abdominal aorta of each rat, and the plasma glucose concentration was measured. […]

[2] = tested on: rat monocrotaline-administered pulmonary hypertension model; assay: Rat monocrotaline-administered pulmonary hypertension model, administration from advanced stage; assay type: in vivo, rat (Wistar strain); conditions: 10 mg/kg orally once per day for 18 or 19 days from Day 10 after monocrotaline; t-test p<0.05; FIG. 7
Protocol: Rats (Wistar strain, male, 5 weeks old; JAPAN SLC, Inc.) with pulmonary hypertension induced by subcutaneous administration of an aqueous monocrotaline (Sigma Corporation) solution (60 mg/kg) to the back were provided as “group with induced pulmonary hypertension”. On the other hand, rats to which water for injection was similarly administered were provided as “normal group”.
To rats in the group with induced pulmonary hypertension, Example Compound 1 (3 or 10 mg/kg) or a positive control compound tadalafil (10 mg/kg) was orally administered once per day. Administration of Example Compound 1 (3 or 10 mg/kg) was carried out for 18 or 19 days from Day 10 after the administration of monocrotaline. Administration of tadalafil (10 mg/kg) was carried out for 28 or 29 days from the day of administration of monocrotaline. […]
On the last day of administration of the test compound, blood was collected from the abdominal vena cava of each rat under anesthesia, and the rat was then euthanized, followed by removal of the heart for measurement of the wet weights of the right ventricle, left ventricle and septum to determine the right ventricular weight ratio (right ventricular weight/(septum weight+left ventricular weight)). The 14,15-DHET concentration in the collected blood was measured by the ELISA method. […]

With `CCC(=O)NC1(C(=O)N2CCC[C@@H](C(=O)NCc3ccc(C#N)cc3OC(F)(F)F)C2)CCC1` [Example Compound 1, (R)—N-(4-cyano-2-(trifluoromethoxy)benzyl)-1-(1-propionamidocyclobutanecarbonyl)piperidine-3-carboxamide] the “amount of urinary albumin excretion” value ([1]; Day 27 after streptozotocin, orally once per day for 20 days from Day 8 (Example Compound 1 10 mg/kg, imidapril 2 mg/kg)) was 5.41 ± 1.13 mg/day, the systemic systolic pressure ([1]; day 18 after streptozotocin, 10 mg/kg orally once per day, tail-cuff) was 199±6 mmHg and the “right ventricular weight ratio vs pulmonary hypertension control group” value [2] was “statistically significantly lower”.
